Measurements from patent US20230295197A1, “STAT5 and STAT6 Degraders and Uses Thereof” (REGENTS OF THE UNIVERSITY OF MICHICAN, priority 2022, published 2023).
Read-outs that look alike come from different tables or passages of the source.

Target: T1, STAT6 (Homo sapiens, UniProt P42226)
T1 construct: endogenous in cells; host or cells: MOLM-16, KU-812, SKNO1, MB231, L1236
T1 sequence (P42226 1-847): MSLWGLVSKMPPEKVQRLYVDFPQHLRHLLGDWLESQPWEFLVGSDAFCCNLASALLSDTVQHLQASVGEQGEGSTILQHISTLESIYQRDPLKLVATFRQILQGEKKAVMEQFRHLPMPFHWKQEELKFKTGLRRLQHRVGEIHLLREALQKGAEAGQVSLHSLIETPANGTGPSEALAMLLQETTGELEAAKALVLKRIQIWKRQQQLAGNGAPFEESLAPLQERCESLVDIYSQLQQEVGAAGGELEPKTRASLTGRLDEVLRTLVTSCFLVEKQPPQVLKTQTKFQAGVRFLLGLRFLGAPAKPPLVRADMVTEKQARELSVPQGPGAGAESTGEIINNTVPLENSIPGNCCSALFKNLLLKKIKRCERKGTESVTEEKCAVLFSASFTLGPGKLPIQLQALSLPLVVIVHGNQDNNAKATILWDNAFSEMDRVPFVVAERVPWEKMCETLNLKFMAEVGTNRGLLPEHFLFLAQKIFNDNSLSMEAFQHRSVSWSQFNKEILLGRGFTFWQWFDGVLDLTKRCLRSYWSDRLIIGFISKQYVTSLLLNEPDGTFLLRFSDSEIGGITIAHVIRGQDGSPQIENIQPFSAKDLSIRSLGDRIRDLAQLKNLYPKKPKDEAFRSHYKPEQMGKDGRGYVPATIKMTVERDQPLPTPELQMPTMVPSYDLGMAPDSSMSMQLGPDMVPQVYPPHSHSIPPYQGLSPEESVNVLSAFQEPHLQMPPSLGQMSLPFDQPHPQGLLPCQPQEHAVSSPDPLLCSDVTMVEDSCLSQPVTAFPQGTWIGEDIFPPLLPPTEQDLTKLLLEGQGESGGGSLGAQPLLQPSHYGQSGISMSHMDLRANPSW
Assay: Immunoblotting (Western blot) analysis of STAT6 degradation efficiency of degraders in treated cells
Type: cell-based
Method in brief: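 Degradation read by quantitative near-infrared Western blot: equal protein loads (20-40 μg) from compound-treated versus untreated cells, probed overnight at 4° C. for STAT5 or STAT6 with GAPDH reference. Compound concentrations and exposure times as indicated; cells grown in medium with 10% FBS at 37° C.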

[1] = MOLM-16 cells, class symbols, read-out: DC50 S6 MOLM-16
[2] = L1236 cells, read-out: DC50 S6 L1236

Structure (SMILES) | DC50 [1] [µM] | DC50 [2] [µM] | DC50 (MB231 cells, read-out: DC50 S6 MB231) [µM]
CC(C)(C)[C@H](NC(=O)c1cc2cc(C(F)(F)P(=O)(O)O)ccc2s1)C(=O)N1Cc2cc(OCC(=O)NCCC#Cc3cccc4c3C(=O)N(C3CCC(=O)NC3=O)C4=O)ccc2C[C@H]1C(=O)N1CCO[C@H](c2ccccc2)C1 (stereo partly drawn) [Compound 537, ((2-(((2S)-1-((3S)-7-(2-((4-(2-(2,6-dioxopiperidin-3-yl)-1,3-dioxoisoindolin-4-yl)but-3-yn-1-yl)amino)-2-oxoethoxy)-3-((R)-2-phenylmorpholine-4-carbonyl)-3,4-dihydroisoquinolin-2(1H)-yl)-3,3-dimethyl-1-oxobutan-2-yl)carbamoyl)benzo[b]thiophen-5-yl)difluoromethyl)phosphonic acid] | > 10 |  | 
CC(C)(C)[C@H](NC(=O)c1cc2cc(C(F)(F)P(=O)(O)O)ccc2s1)C(=O)N1CCN(C(=O)CC(=O)NCCCCCC#Cc2ccc3c(c2)C(=O)N(C2CCC(=O)NC2=O)C3=O)C[C@H]1C(=O)N1CCC[C@H](c2ccccc2)C1 (stereo partly drawn) [Compound 530, ((2-(((2S)-1-((2S)-4-(3-((7-(2-(2,6-dioxopiperidin-3-yl)-1,3-dioxoisoindolin-5-yl)hept-6-yn-1-yl)amino)-3-oxopropanoyl)-2-((R)-3-phenylpiperidine-1-carbonyl)piperazin-1-yl)-3,3-dimethyl-1-oxobutan-2-yl)carbamoyl)benzo[b]thiophen-5-yl)difluoromethyl)phosphonic acid] | > 10 |  | 
CC(C)(C)[C@H](NC(=O)c1cc2cc(C(F)(F)P(=O)(O)O)ccc2s1)C(=O)N1Cc2cc(OCC(=O)NCCCC#Cc3cccc4c3C(=O)N(C3CCC(=O)NC3=O)C4=O)ccc2C[C@H]1C(=O)N1CCO[C@H](c2ccccc2)C1 (stereo partly drawn) [Compound 539, ((2-(((2S)-1-((3S)-7-(2-((5-(2-(2,6-dioxopiperidin-3-yl)-1,3-dioxoisoindolin-4-yl)pent-4-yn-1-yl)amino)-2-oxoethoxy)-3-((R)-2-phenylmorpholine-4-carbonyl)-3,4-dihydroisoquinolin-2(1H)-yl)-3,3-dimethyl-1-oxobutan-2-yl)carbamoyl)benzo[b]thiophen-5-yl)difluoromethyl)phosphonic acid] | > 10 |  | 
CC(C)(C)[C@H](NC(=O)c1cc2cc(C(F)(F)P(=O)(O)O)ccc2s1)C(=O)N1CCN(C(=O)CC(=O)NCCCCCC#Cc2cccc3c2C(=O)N(C2CCC(=O)NC2=O)C3=O)C[C@H]1C(=O)N1CCC[C@H](c2ccccc2)C1 (stereo partly drawn) [Compound 529, ((2-(((2S)-1-((2S)-4-(3-((7-(2-(2,6-dioxopiperidin-3-yl)-1,3-dioxoisoindolin-4-yl)hept-6-yn-1-yl)amino)-3-oxopropanoyl)-2-((R)-3-phenylpiperidine-1-carbonyl)piperazin-1-yl)-3,3-dimethyl-1-oxobutan-2-yl)carbamoyl)benzo[b]thiophen-5-yl)difluoromethyl)phosphonic acid] | > 10 |  | 
Cc1ncsc1-c1ccc([C@H](C)NC(=O)[C@@H]2C[C@@H](O)CN2C(=O)[C@@H](NC(=O)CCCCCCCNC(=O)CO[C@H]2C[C@@H](C(=O)N3CCC[C@H](c4ccccc4)C3)N(C(=O)[C@@H](NC(=O)c3cc4cc(C(F)(F)P(=O)(O)O)ccc4s3)C(C)(C)C)C2)C(C)(C)C)cc1 [Compound 440, (difluoro(2-(((S)-1-((2S,4S)-4-(2-((8-(((S)-1-((2S,4R)-4-hydroxy-2-(((S)-1-(4-(4-methylthiazol-5-yl)phenyl)ethyl)carbamoyl)pyrrolidin-1-yl)-3,3-dimethyl-1-oxobutan-2-yl)amino)-8-oxooctyl)amino)-2-oxoethoxy)-2-((R)-3-phenylpiperidine-1-carbonyl)pyrrolidin-1-yl)-3,3-dimethyl-1-oxobutan-2-yl)carbamoyl)benzo[b]thiophen-5-yl)methyl)phosphonic acid] | > 10 | > 10 | 
Cc1ncsc1-c1ccc(CNC(=O)[C@@H]2C[C@@H](O)CN2C(=O)[C@@H](NC(=O)CCCCCNC(=O)CO[C@@H]2C[C@@H](C(=O)N(C)c3ccc(Br)cc3)N(C(=O)[C@@H](NC(=O)c3cc4cc(C(F)(F)P(=O)(O)O)ccc4s3)C(C)(C)C)C2)C(C)(C)C)cc1 [Compound 417, ((2-(((S)-1-((2S,4R)-2-((4-bromophenyl)(methyl)carbamoyl)-4-(2-((6-(((S)-1-((2S,4R)-4-hydroxy-2-((4-(4-methylthiazol-5-yl)benzyl)carbamoyl)pyrrolidin-1-yl)-3,3-dimethyl-1-oxobutan-2-yl)amino)-6-oxohexyl)amino)-2-oxoethoxy)pyrrolidin-1-yl)-3,3-dimethyl-1-oxobutan-2-yl)carbamoyl)benzo[b]thiophen-5-yl)difluoromethyl)phosphonic acid] |  | > 10 | > 10
Cc1cc([C@H](C(=O)N2C[C@H](O)C[C@H]2C(=O)N[C@@H](CC(=O)NCCCCCCCCNC(=O)CO[C@@H]2C[C@@H](C(=O)N(C)c3ccc(Br)cc3)N(C(=O)[C@@H](NC(=O)c3cc4cc(C(F)(F)P(=O)(O)O)ccc4s3)C(C)(C)C)C2)c2ccc(-c3scnc3C)cc2)C(C)C)on1 [Compound 423, ((2-(((S)-1-((2S,4R)-2-((4-bromophenyl)(methyl)carbamoyl)-4-(2-((8-((S)-3-((2S,4R)-4-hydroxy-1-((R)-3-methyl-2-(3-methylisoxazol-5-yl)butanoyl)pyrrolidine-2-carboxamido)-3-(4-(4-methylthiazol-5-yl)phenyl)propanamido)octyl)amino)-2-oxoethoxy)pyrrolidin-1-yl)-3,3-dimethyl-1-oxobutan-2-yl)carbamoyl)benzo[b]thiophen-5-yl)difluoromethyl)phosphonic acid] | > 10 |  | 
O=C1CCC(N2Cc3cc(C#CCCCCCC(=O)N4CC[C@H]5CC[C@@H](C(=O)N6CCOC(c7ccc(F)c(Cl)c7)C6)N5C(=O)[C@@H](NC(=O)c5cc6cc(C(F)(F)P(=O)(O)O)ccc6s5)C4)ccc3C2=O)C(=O)N1 (stereo partly drawn) [Compound 575, ((2-(((5S,8S,10aR)-8-(2-(3-chloro-4-fluorophenyl)morpholine-4-carbonyl)-3-(8-(2-(2,6-dioxopiperidin-3-yl)-1-oxoisoindolin-5-yl)oct-7-ynoyl)-6-oxodecahydropyrrolo[1,2-a][1,5]diazocin-5-yl)carbamoyl)benzo[b]thiophen-5-yl)difluoromethyl)phosphonic acid] | > 10 | > 10 | 
CC(C)(C)[C@H](NC(=O)c1cc2cc(C(F)(F)P(=O)(O)O)ccc2s1)C(=O)N1CCN(C(=O)CC(=O)NCCCCCCCCCC#Cc2cccc3c2C(=O)N(C2CCC(=O)NC2=O)C3=O)C[C@H]1C(=O)N1CCC[C@H](c2ccccc2)C1 (stereo partly drawn) [Compound 533, ((2-(((2S)-1-((2S)-4-(3-((11-(2-(2,6-dioxopiperidin-3-yl)-1,3-dioxoisoindolin-4-yl)undec-10-yn-1-yl)amino)-3-oxopropanoyl)-2-((R)-3-phenylpiperidine-1-carbonyl)piperazin-1-yl)-3,3-dimethyl-1-oxobutan-2-yl)carbamoyl)benzo[b]thiophen-5-yl)difluoromethyl)phosphonic acid] | > 10 |  | 
CC(C)(C)[C@H](NC(=O)c1cc2cc(C(F)(F)P(=O)(O)O)ccc2s1)C(=O)N1CCN(C(=O)CC(=O)NCC#Cc2ccc3c(c2)C(=O)N(C2CCC(=O)NC2=O)C3=O)C[C@H]1C(=O)N1CCC[C@H](c2ccccc2)C1 (stereo partly drawn) [Compound 522, ((2-(((2S)-1-((2S)-4-(3-((3-(2-(2,6-dioxopiperidin-3-yl)-1,3-dioxoisoindolin-5-yl)prop-2-yn-1-yl)amino)-3-oxopropanoyl)-2-((R)-3-phenylpiperidine-1-carbonyl)piperazin-1-yl)-3,3-dimethyl-1-oxobutan-2-yl)carbamoyl)benzo[b]thiophen-5-yl)difluoromethyl)phosphonic acid] | > 10 |  | 
Cc1ncsc1-c1ccc([C@H](C)NC(=O)[C@@H]2C[C@@H](O)CN2C(=O)[C@@H](NC(=O)CCCCCCNC(=O)CO[C@H]2C[C@@H](C(=O)N3CCO[C@H](c4ccccc4)C3)N(C(=O)[C@@H](NC(=O)c3cc4cc(C(F)(F)P(=O)(O)O)ccc4s3)C(C)(C)C)C2)C(C)(C)C)cc1 [Compound 430, (difluoro(2-(((S)-1-((2S,4S)-4-(2-((7-(((S)-1-((2S,4R)-4-hydroxy-2-(((S)-1-(4-(4-methylthiazol-5-yl)phenyl)ethyl)carbamoyl)pyrrolidin-1-yl)-3,3-dimethyl-1-oxobutan-2-yl)amino)-7-oxoheptyl)amino)-2-oxoethoxy)-2-((R)-2-phenylmorpholine-4-carbonyl)pyrrolidin-1-yl)-3,3-dimethyl-1-oxobutan-2-yl)carbamoyl)benzo[b]thiophen-5-yl)methyl)phosphonic acid] | > 10 | > 10 | 
